As usually defined, the MIC50 is an inhibitory concentration at the 50% level, which refers to growth in some studies and to a panel of isolates in others. By MIC90 is commonly meant the lowest concentration that inhibits either 90% of growth or 90% of the strains tested, depending on the study.

Values after ≈ are worked out from the molar mass of the structure shown.

This test deals with Staphylococcus aureus. Kind of test: Minimum inhibitory concentration against methicillin-resistant Staphylococcus aureus. It counts as functional.
`CC1=C2OC=C(C(F)(F)F)c3ccc(C)c(c32)C(=O)C1=O` had an MIC50 of 16 µg/mL (≈ 54.4 µM) and an MIC90 greater than 32 µg/mL.
With `CC1=C2OCCc3ccc(C)c(c32)C(=O)C1=O`, the MIC50 was determined as 16 µg/mL (≈ 70.1 µM) and the MIC90 was 16 µg/mL (≈ 70.1 µM).
`CC1=COc2c(C)cc([N+](=O)[O-])c3c(C)ccc1c23` had an MIC50 greater than 32 µg/mL and an MIC90 greater than 32 µg/mL.
As to `COC1=CC(=O)C(=O)C=C1C`, the MIC50 is greater than 32 µg/mL and the MIC90 is greater than 32 µg/mL.
`CC1=COc2c(C)ccc3c(C)ccc1c23` returned an MIC50 greater than 32 µg/mL and an MIC90 greater than 32 µg/mL.
Turning to `CCC1(O)COC2=C(C)C(=O)C(=O)c3c(C)ccc1c32` (configuration not stated), the MIC50 worked out at 16 µg/mL (≈ 58.8 µM) and the MIC90 came out at 16 µg/mL (≈ 58.8 µM).
Take `CC1=C2OC=Cc3ccc(C)c(c32)C(=O)C1=O`: the MIC50 was found to be 8 µg/mL (≈ 35.4 µM) and the MIC90 was determined as 8 µg/mL (≈ 35.4 µM).
Take `CCC1COC2=C(C)C(=O)C(=O)c3c(C)ccc1c32` (configuration not stated): the MIC50 is 32 µg/mL (≈ 125 µM) and the MIC90 was determined as 32 µg/mL (≈ 125 µM).
With `CC1=C2OC=C(C(C)C)c3ccc(C)c(c32)C(=O)C1=O`, the MIC50 is 4 µg/mL (≈ 14.9 µM) and the MIC90 worked out at 4 µg/mL (≈ 14.9 µM).
Compound `CCOC(=O)CC1COC2=C(C)C(=O)C(=O)c3c(C)ccc1c32` (configuration not stated) gave an MIC50 of 16 µg/mL (≈ 50.9 µM) and an MIC90 of 32 µg/mL (≈ 102 µM).
Consider `C=CC1=COC2=C(C)C(=O)C(=O)c3c(C)ccc1c32`, for which the MIC50 is greater than 32 µg/mL and the MIC90 was greater than 32 µg/mL.
For the compound `CCC1=COC2=C(C)C(=O)C(=O)c3c(C)ccc1c32`, the MIC50 worked out at 4 µg/mL (≈ 15.7 µM) and the MIC90 was found to be 4 µg/mL (≈ 15.7 µM).
On to `CC1=C2OC=C(C#N)c3ccc(C)c(c32)C(=O)C1=O`, for which the MIC50 was 8 µg/mL (≈ 31.8 µM) and the MIC90 was determined as 16 µg/mL (≈ 63.7 µM).
The corresponding values for `CCCCC1=COC2=C(C)C(=O)C(=O)c3c(C)ccc1c32` are 8 µg/mL (≈ 28.3 µM) and 8 µg/mL (≈ 28.3 µM).
The corresponding values for `CC1=C2OCC(CC(=O)O)c3ccc(C)c(c32)C(=O)C1=O` (configuration not stated) are greater than 32 µg/mL and greater than 32 µg/mL.
The corresponding values for `CC1=C2OC=C(CCO)c3ccc(C)c(c32)C(=O)C1=O` are greater than 32 µg/mL and greater than 32 µg/mL.
`CC1=C2OCC(C)(O)c3ccc(C)c(c32)C(=O)C1=O` (configuration not stated) returned an MIC50 of 16 µg/mL (≈ 61.9 µM) and an MIC90 greater than 32 µg/mL.
For `COC1=C(C)C(=O)C(=O)c2c(C)cccc21`, the MIC50 is greater than 32 µg/mL and the MIC90 was greater than 32 µg/mL.
Compound `CC1=C2OCC(Cl)(C(F)(F)F)c3ccc(C)c(c32)C(=O)C1=O` (configuration not stated) returned an MIC50 of 16 µg/mL (≈ 48.4 µM) and an MIC90 of 16 µg/mL (≈ 48.4 µM).
`CC1=C2OCC(C)c3ccc(C)c(c32)C(=O)C1=O` (configuration not stated) [MANSONONE E]: the MIC50 was 8 µg/mL (≈ 33 µM) and the MIC90 came to 16 µg/mL (≈ 66 µM).
On to `CN[C@H](CC(C)C)C(=O)N[C@H]1C(=O)N[C@@H](CC(N)=O)C(=O)N[C@H]2C(=O)N[C@H]3C(=O)N[C@H](C(=O)N[C@H](C(=O)O)c4cc(O)cc(O)c4-c4cc3ccc4O)[C@H](O)c3ccc(c(Cl)c3)Oc3cc2cc(c3O[C@@H]2O[C@H](CO)[C@@H](O)[C@H](O)[C@H]2O[C@H]2C[C@](C)(N)[C@H](O)[C@H](C)O2)Oc2ccc(cc2Cl)[C@H]1O` [VANCOMYCIN], for which the MIC50 was determined as 2 µg/mL (≈ 1.38 µM) and the MIC90 was 2 µg/mL (≈ 1.38 µM).
